Data from PubChem BioAssay AID1963842 (Molecular Pharmacology Branch, DTP, NCI, 2024).

System: 677734-321-R-J1-PDC complex spheroid viability
Assay: Anticancer human tumor 677734-321-R-J1-PDC patient-derived soft tissue sarcoma cell line growth inhibition [POLQ]
Settings: for IC50: curve of first compound; for viability, T/C: stronger effect = lower value
In short: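 Complex spheroid viability model combining PDC tumour cells with endothelial (HUVEC) and MSC stromal cells. Novobiocin, ART-558 or RP6685 were tested singly and in combination with standard and investigational anticancer drugs. Each was titrated in half-log steps from near clinical Cmax, or from 10 microM where Cmax was unknown.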

[1] = second compound 0.0316 µM, first compound 0.0316 µM
[2] = second compound 0.0316 µM, first compound 0.1 µM
[3] = second compound 0.0316 µM, first compound 0.316 µM
[4] = second compound 0.0316 µM, first compound 1 µM
[5] = second compound 0.0316 µM, first compound 3.16 µM
[6] = second compound 0.0316 µM, first compound 10 µM
[7] = second compound 0.1 µM, first compound 0.0316 µM
[8] = second compound 0.1 µM, first compound 0.1 µM
[9] = second compound 0.1 µM, first compound 0.316 µM
[10] = second compound 0.1 µM, first compound 1 µM
[11] = second compound 0.1 µM, first compound 3.16 µM
[12] = second compound 0.1 µM, first compound 10 µM
[13] = second compound 0.316 µM, first compound 0.0316 µM
[14] = second compound 0.316 µM, first compound 0.1 µM
[15] = second compound 0.316 µM, first compound 0.316 µM
[16] = second compound 0.316 µM, first compound 1 µM
[17] = second compound 0.316 µM, first compound 3.16 µM
[18] = second compound 0.316 µM, first compound 10 µM
[19] = second compound 1 µM, first compound 0.0316 µM
[20] = second compound 1 µM, first compound 0.1 µM
[21] = second compound 1 µM, first compound 0.316 µM
[22] = second compound 1 µM, first compound 1 µM
[23] = second compound 1 µM, first compound 3.16 µM
[24] = second compound 1 µM, first compound 10 µM
[25] = second compound 3.16 µM, first compound 0.0316 µM
[26] = second compound 3.16 µM, first compound 0.1 µM
[27] = second compound 3.16 µM, first compound 0.316 µM
[28] = second compound 3.16 µM, first compound 1 µM
[29] = second compound 3.16 µM, first compound 3.16 µM
[30] = second compound 3.16 µM, first compound 10 µM
[31] = second compound 10 µM, first compound 0.0316 µM
[32] = second compound 10 µM, first compound 0.1 µM
[33] = second compound 10 µM, first compound 0.316 µM
[34] = second compound 10 µM, first compound 1 µM
[35] = second compound 10 µM, first compound 3.16 µM
[36] = second compound 10 µM, first compound 10 µM
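Note: spheroids exposed to compounds for one week.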
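Throughout, for viability, T/C: 100% = vehicle DMSO treated spheroids.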

With `COc1cc(C2c3cc4c(cc3C(OC3OC5COC(C)OC5C(O)C3O)C3COC(=O)C23)OCO4)cc(OC)c1O` (stereo unspecified) + Nc1ccc(C#CCN(C(=O)Cc2ncc(C(F)(F)F)cc2C(F)(F)F)c2ccc(F)cc2)nn1 the IC50 (second compound 0.0316 µM) was 417 nM, the IC50 (second compound 0.1 µM) was 482 nM and the IC50 (second compound 0.316 µM) was 315 nM. It also gave an IC50 (second compound 1 µM) of 375 nM, an IC50 (second compound 3.16 µM) of 341 nM and an IC50 (second compound 10 µM) of 219 nM. The viability, T/C [1] was 98.2%, the viability, T/C [2] was 93.8% and the viability, T/C [3] was 47.1%. It also gave a viability, T/C [4] of 37.2%, a viability, T/C [5] of 16.8% and a viability, T/C [6] of 10.4%. The viability, T/C [7] was 97.4%, the viability, T/C [8] was 92.5% and the viability, T/C [9] was 45.8%. The viability, T/C [10] was 46%, the viability, T/C [11] was 11.4% and the viability, T/C [12] was 8.28%. It also gave a viability, T/C [13] of 122%, a viability, T/C [14] of 102% and a viability, T/C [15] of 45%. For the same compound, the viability, T/C [16] was 29.6%, the viability, T/C [17] was 12.6% and the viability, T/C [18] was 10.6%. For the same compound, the viability, T/C [19] was 111%, the viability, T/C [20] was 75.3% and the viability, T/C [21] was 54%. The viability, T/C [22] was 36.2%, the viability, T/C [23] was 15.4% and the viability, T/C [24] was 8.43%. For the same compound, the viability, T/C [25] was 101%, the viability, T/C [26] was 89.2% and the viability, T/C [27] was 41.8%. For the same compound, the viability, T/C [28] was 36.6%, the viability, T/C [29] was 12.5% and the viability, T/C [30] was 10%. It also gave a viability, T/C [31] of 108%, a viability, T/C [32] of 72.6% and a viability, T/C [33] of 31%. The viability, T/C [34] was 35.5%, the viability, T/C [35] was 12.5% and the viability, T/C [36] was 8.79%.
For `Nc1ccn(C2OC(CO)C(O)C2(F)F)c(=O)n1` (stereo unspecified) + Nc1ccc(C#CCN(C(=O)Cc2ncc(C(F)(F)F)cc2C(F)(F)F)c2ccc(F)cc2)nn1, the IC50 (second compound 0.0316 µM) was < 31.6 nM, the IC50 (second compound 0.1 µM) was < 31.6 nM and the IC50 (second compound 0.316 µM) was < 31.6 nM. The IC50 (second compound 1 µM) was < 31.6 nM, the IC50 (second compound 3.16 µM) was < 31.6 nM and the IC50 (second compound 10 µM) was 68.3 nM. It also gave a viability, T/C [1] of 15.4%, a viability, T/C [2] of 11.3% and a viability, T/C [3] of 11.7%. For the same compound, the viability, T/C [4] was 10.9%, the viability, T/C [5] was 10.4% and the viability, T/C [6] was 5.84%. The viability, T/C [7] was 17.8%, the viability, T/C [8] was 13% and the viability, T/C [9] was 11.4%. For the same compound, the viability, T/C [10] was 11.2%, the viability, T/C [11] was 8.25% and the viability, T/C [12] was 6.36%. For the same compound, the viability, T/C [13] was 18.4%, the viability, T/C [14] was 11.9% and the viability, T/C [15] was 13%. It also gave a viability, T/C [16] of 12.1%, a viability, T/C [17] of 11.4% and a viability, T/C [18] of 6.35%. The viability, T/C [19] was 28.2%, the viability, T/C [20] was 11.8% and the viability, T/C [21] was 12.3%. The viability, T/C [22] was 13.7%, the viability, T/C [23] was 10.3% and the viability, T/C [24] was 6.64%. The viability, T/C [25] was 46.4%, the viability, T/C [26] was 15.8% and the viability, T/C [27] was 13.1%. It also gave a viability, T/C [28] of 13.7%, a viability, T/C [29] of 9.36% and a viability, T/C [30] of 7.65%. For the same compound, the viability, T/C [31] was 87.1%, the viability, T/C [32] was 31.4% and the viability, T/C [33] was 14.1%. It also gave a viability, T/C [34] of 14.3%, a viability, T/C [35] of 10.6% and a viability, T/C [36] of 9.19%.
For `O=c1[nH]cc(F)c(=O)[nH]1` + Nc1ccc(C#CCN(C(=O)Cc2ncc(C(F)(F)F)cc2C(F)(F)F)c2ccc(F)cc2)nn1, the IC50 (second compound 0.0316 µM) was > 10000 nM, the IC50 (second compound 0.1 µM) was > 10000 nM and the IC50 (second compound 0.316 µM) was > 10000 nM. For the same compound, the IC50 (second compound 1 µM) was > 10000 nM, the IC50 (second compound 3.16 µM) was > 10000 nM and the IC50 (second compound 10 µM) was > 10000 nM. For the same compound, the viability, T/C [1] was 101%, the viability, T/C [2] was 113% and the viability, T/C [3] was 93.8%. For the same compound, the viability, T/C [4] was 91.9%, the viability, T/C [5] was 68.7% and the viability, T/C [6] was 54.7%. It also gave a viability, T/C [7] of 117%, a viability, T/C [8] of 112% and a viability, T/C [9] of 101%. It also gave a viability, T/C [10] of 108%, a viability, T/C [11] of 64.9% and a viability, T/C [12] of 54.4%. For the same compound, the viability, T/C [13] was 103%, the viability, T/C [14] was 105% and the viability, T/C [15] was 119%. The viability, T/C [16] was 76.5%, the viability, T/C [17] was 66.5% and the viability, T/C [18] was 54.9%. For the same compound, the viability, T/C [19] was 107%, the viability, T/C [20] was 93.8% and the viability, T/C [21] was 96.4%. The viability, T/C [22] was 90.8%, the viability, T/C [23] was 61.3% and the viability, T/C [24] was 56.4%. For the same compound, the viability, T/C [25] was 102%, the viability, T/C [26] was 99% and the viability, T/C [27] was 103%. For the same compound, the viability, T/C [28] was 89%, the viability, T/C [29] was 65.1% and the viability, T/C [30] was 53.3%. It also gave a viability, T/C [31] of 101%, a viability, T/C [32] of 110% and a viability, T/C [33] of 95.5%. The viability, T/C [34] was 94.7%, the viability, T/C [35] was 68.9% and the viability, T/C [36] was 54.5%.
